Assay [1] relates to RAW264.7 cells. Description: mRNA expression in RAW264.7 cells stimulated by LPS and CpG DNA (real-time PCR). The format is cell-based, murine. On the procedure: Cells preparation: Cells suspension was adjusted to 1×10^6/ml in DMEM supplemented with 10% (v/v) NCS; 2 ml of the above suspension was added into 6-well plates and cultured at 37° C. in a 5% CO2 humidified incubator for 2 h; for the purpose of experiment four groups were established: medium group, KB control group, stimulation group and KB treatment group; no reagent was added in medium group; KB control group was added with KB (200 μM); stimulation group was added with LPS (100 ng/ml) and CpG DNA (10 μg/ml); KB treatment group was added with KB (concentrations of 100 and 200 μM) in the meantime of adding LPS and CpG DNA; cells were cultured for 4 h and collected.
RNA extraction: Supernatant was sucked and discarded; 1 ml tripure was added into each well and resuspended with a pipet to make cells completely lysed; the lysate was transferred into 1.5 ml EP tube and incubated at room temperature for 5 min to ensure completed separation of ribonucleoprotein complex; 0.2 ml chloroform was added into EP tube; tube cap was closed and mixed by inversion for 15 sec; EP tube was incubated at room temperature for 10 min until layering of the liquid in tube, then centrifuged at 12000 g at 4_for 15 min; solution was separated into the three-phase; the upper solution (colorless liquid, approximately 0.4 ml) in EP tube was transferred into a new EP tube (DEPC treated); 0.5 ml isopropyl alcohol was added into EP tubes and the liquid was mixed by inversion for several times; EP tube was incubated at room temperature for 10 min to promote RNA precipitating, and centrifuged at 12000 g at 4_for 10 min; the supernatant was discarded; RNA precipitate was added with 1 ml 75% ethanol, vortex washed, and centrifuged at 12000 g at 4 for 10 min; then the supernatant was discarded; EP tube was dried at room temperature for 15 min to remove excessive ethanol; RNA precipitate was diluted with 20 μl ddH2O treated with DEPC, resuspended by pipetting in and out several times, incubated at 55 to 60 for 10 min, and then stored at −70.
Reverse transcription: Reverse-transcription reaction mixture (include: Rnase-free H2O, 10 μl; 5×RT buffer, 4 μl; dNTP mixture, 2 μl; RNase inhibitor, 1 μl; Oligo(dT)20, 1 μl; RNA, 1 μl; ReverTra Ace, 1 μl) was prepared on ice bath, mixed, incubated at 42° C. for 1 h and at 99° C. for 5 min, stored at −20.
PCR amplification: Primers were designed using Primer Premier 5 software by ourselves, and synthesized by Shanghai Sangon Biological Engineering Technology & Services Co., Ltd. The relevant primer sequences are as follows […]
Results were expressed as CT value, and converted into ratio of β-actin, the internal reference items, according to 2^−ΔΔCT methods. […]
Background: Real-time PCR tracks product formation cycle by cycle.

Assay [2] has as its system RAW264.7 cells. The experiment in a line: Western blot of IκB-α and p38 phosphorylation in RAW264.7 cells. The format is cell-based, murine. The method, then:
Extraction of cytoplasmic protein: RAW264.7 cells were diluted to 1×10^6/ml in DMEM supplemented with 10% (v/v) NCS; 5 ml of the above suspension was transferred into cell culture bottles and cultured at 37° C. in a 5% CO2 humidified incubator for 4 h; a preliminary experiment was first performed, in which RAW264.7 cells were stimulated by LPS (100 ng/ml), CpG DNA (10 μg/ml), TNF-α (50 ng/ml) or IL-1β (50 ng/ml) for 15, 30, 45 and 60 min respectively; for the purpose of formal experiment a medium group, a KB control group, stimulation group (LPS, CpG DNA, TNF-α or IL-1β) and a KB treatment group (LPS+KB group, CpG DNA+KB group, TNF-α+KB group and IL-1β+KB group) were established; no reagent was added in medium group; KB control group was only added with KB (200 μM); stimulation group was added with LPS (100 ng/ml), CpG DNA (10 μg/ml), TNF-α (50 ng/ml) or IL-1β (50 ng/ml); KB treatment group was added with KB (100, 200 μM) in the meantime of adding LPS, CpG DNA, TNF-α or IL-1β; the duration time of cell culture was based on the preliminary experiment (30 min); cells were washed with PBS and centrifuged to collect cells; supernatant was sucked and discarded; the cell pellet was collected for further experiment; each 20 μl cell pellet was added with 200 μl cytoplasm protein extraction reagents supplemented with PMSF, shook vigorously for 5 seconds to completely suspend and disperse the cell pellet, chilled for 10 to 15 min in an ice bath, centrifuged at 12,000 g at 4° C. for 5 min; the supernatant was instantly transferred into a precooled plastic tube, which was the cytoplasmic protein obtained by extraction;
(3) Sample preparation: Protein sample was mixed with 5× concentrated loading buffer in proportion of 4:1, and denatured at 100° C. for 5 min;
(5) Loading: Sample loading volume was adjusted according to protein concentration to ensure 20 μg protein content of each sample; samples were loaded with microsyringe (5 μl protein molecular weight marker were loaded); […]
In general terms: Immunoblotting shows a protein as a band on a membrane.

The mark [3] stands for this setting: KB 100 and 200 μM, 30 min, western blot.

On to `NCCCN(CCCCNCCCNC(=O)CCc1ccc(O)c(O)c1)C(=O)CCc1ccc(O)c(O)c1` [KB, Kukoamine B], for which, in assay [1] (100, 200 μM, CpG DNA 10 μg/ml, 4 h, dose-dependent), the “mRNA expressions of TNF-α, IL-6, iNOS and COX-2 up-regulated by CpG DNA” value is recorded as “significantly inhibit the mRNA expressions”. Moreover, the “mRNA expressions of TNF-α, IL-6, iNOS and COX-2 up-regulated by LPS” value in assay [1] (100, 200 μM, LPS 100 ng/ml, 4 h, dose-dependent) is “significantly inhibit the mRNA expressions”. In addition, in assay [1] (KB 100 and 200 μM, RT-PCR), the “up-regulated expression of TLR4 induced by LPS and CpG DNA” value is recorded as “significantly inhibited”; the “up-regulated expression of TLR9 induced by LPS and CpG DNA” value is reported as “significantly inhibited”. For the same molecule, the “expression of IκB-α and p-IκB-α, KB alone” value in assay [2] (KB 200 μM alone vs medium group) was “had no influence”. In assay [2] (setting [3]), the “degradation of IκB-α and up-regulated expression of p-IκB-α induced by LPS and CpG DNA” value is reported as “both were significantly inhibited”; the “p-p38 expression induced by LPS and CpG DNA” value is reported as “significantly inhibited”.

For the origin of these results see patent publication US10039729B2, “Use of kukoamine A and kukoamine B” (Tianjin Chase Sun Pharmaceutical Co., Ltd., priority 2010, dated 2018).
